Results reported in US9346815B2, “5-chloro-2-difluoromethoxyphenyl pyrazolopyrimidine compounds, compositions and methods of use thereof” (Genentech, Inc., priority 2014, dated 2016).

Tests used:
[1] = biological target: isolated recombinant JAK1 kinase domain (Homo sapiens (Human), UniProt P23458); assay: JAK1 enzyme assay (Caliper LabChip, peptide phosphorylation); type: biochemical; conditions: isolated recombinant JAK1 kinase domain, 25 μM ATP
[2] = biological target: isolated recombinant JAK2 kinase domain (Homo sapiens (Human), UniProt O60674); assay: JAK2 enzyme assay (Caliper LabChip, peptide phosphorylation); type: biochemical; conditions: 25 μM ATP
isolated recombinant JAK2 kinase domain, sequence (O60674 849-1124): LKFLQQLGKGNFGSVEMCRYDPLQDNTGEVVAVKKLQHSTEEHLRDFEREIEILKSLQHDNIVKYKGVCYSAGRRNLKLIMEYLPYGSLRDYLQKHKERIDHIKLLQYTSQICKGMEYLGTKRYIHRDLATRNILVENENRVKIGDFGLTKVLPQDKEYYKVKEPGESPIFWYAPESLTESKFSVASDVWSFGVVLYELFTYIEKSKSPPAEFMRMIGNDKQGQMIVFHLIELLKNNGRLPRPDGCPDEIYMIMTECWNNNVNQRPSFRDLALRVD

isolated recombinant JAK1 kinase domain, sequence (P23458 875-1153): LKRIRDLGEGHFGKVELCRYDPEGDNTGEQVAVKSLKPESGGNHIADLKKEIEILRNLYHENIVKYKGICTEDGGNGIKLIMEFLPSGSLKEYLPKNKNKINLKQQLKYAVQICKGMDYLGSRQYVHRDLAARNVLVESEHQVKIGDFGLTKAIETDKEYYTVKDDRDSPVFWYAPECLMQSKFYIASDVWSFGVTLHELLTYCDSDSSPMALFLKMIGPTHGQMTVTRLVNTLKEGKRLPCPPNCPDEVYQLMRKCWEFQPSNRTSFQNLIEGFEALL

Row | SMILES | Ki [1] | Ki [2]
1 | CN(CC1(C#N)CCCCC1)C1CCN(c2nc(-c3cc(Cl)ccc3OC(F)F)c(NC(=O)c3cnn4cccnc34)s2)CC1 [Example 203, N-[4-[5-chloro-2-(difluoromethoxy)phenyl] 2-[4-[(1-cyanocyclohexyl)methyl-methyl-amino]-1-piperidyl]thiazol-5-yl]pyrazolo[1,5-a]pyrimidine-3-carboxamide] | 5.48 nM | 4.15 nM
2 | O=C(Nc1cn(CC(=O)N2CCCN(CCO)CC2)nc1-c1cc(Cl)ccc1OC(F)F)c1cnn2cccnc12 [Example 240, N-[3-[5-chloro-2-(difluoromethoxy)phenyl]-1-[2-[4-(2-hydroxyethyl)-1,4-diazepan-1-yl]-2-oxo-ethyl]pyrazol-4-yl]pyrazolo[1,5-a]pyrimidine-3-carboxamide] | 1 nM | 1.68 nM
3 | O=C(Nc1cn(CC(=O)N2CCOC(CO)C2)nc1-c1cc(Cl)ccc1OC(F)F)c1cnn2cccnc12 (centres unmarked) [Example 277, N-[3-[5-chloro-2-(difluoromethoxy)phenyl]-1-[2-[2-(hydroxy-methyl)morpholin-4-yl]-2-oxo-ethyl]pyrazol-4-yl]pyrazolo[1,5-a]pyrimidine-3-carboxamide] | 0.51 nM | 0.83 nM
4 | CCN1CCN(C(=O)Cn2cc(NC(=O)c3c(N)nn4cccnc34)c(-c3cc(Cl)ccc3OC(F)F)n2)CC1 [Example 247, 2-amino-N-[3-[5-chloro-2-(difluoromethoxy)phenyl]-1-[2-(4-ethylpiperazin-1-yl)-2-oxo-ethyl]pyrazol-4-yl]pyrazolo[1,5-a]pyrimidine-3-carboxamide] | 0.55 nM | 0.3 nM
5 | O=C(Nc1cn(CC(=O)N2CCC(O)(c3ccccc3)CC2)nc1-c1cc(Cl)ccc1OC(F)F)c1cnn2cccnc12 [Example 289, N-[3-[5-chloro-2-(difluoromethoxy)phenyl]-1-[2-(4-hydroxy-4-phenyl-1-piperidyl)-2-oxo-ethyl]pyrazol-4-yl]pyrazolo[1,5-a]pyrimidine-3-carboxamide] | 0.3 nM | 0.38 nM
6 | CN(C)C[C@H]1CCCN(C(=O)Cn2cc(NC(=O)c3cnn4cccnc34)c(-c3cc(Cl)ccc3OC(F)F)n2)C1 [Example 71, N-[3-[5-chloro-2-(difluoromethoxy)phenyl]-1-[2-[(3R)-3-[(dimethylamino)methyl]-1-piperidyl]-2-oxo-ethyl]pyrazol-4-yl]pyrazolo[1,5-a]pyrimidine-3-carboxamide] | 1.06 nM | 4.66 nM
7 | CN(C)C1CN(C(=O)Cn2cc(NC(=O)c3cnn4cccnc34)c(-c3cc(Cl)ccc3OC(F)F)n2)C1 [Example 64, N-[3-[5-chloro-2-(difluoromethoxy)phenyl]-1-[2-[3-(dimethylamino)azetidin-1-yl]-2-oxo-ethyl]pyrazol-4-yl]pyrazolo[1,5-a]pyrimidine-3-carboxamide] | 0.66 nM | 0.84 nM
8 | Nc1nn2cccnc2c1C(=O)Nc1cn(CC(=O)N2CCC(N3CC[C@@H](O)C3)CC2)nc1-c1cc(Cl)ccc1OC(F)F [Example 76, 2-amino-N-[3-[5-chloro-2-(difluoromethoxy)phenyl]-1-[2-[4-[(3R)-3-hydroxypyrrolidin-1-yl]-1-piperidyl]-2-oxo-ethyl]pyrazol-4-yl]pyrazolo[1,5-a]pyrimidine-3-carboxamide] | 0.5 nM | 0.52 nM
9 | CS(=O)(=O)CCN1CCN(C(=O)Cn2cc(NC(=O)c3cnn4cccnc34)c(-c3cc(Cl)ccc3OC(F)F)n2)CC1 [Example 232, N-[3-[5-chloro-2-(difluoromethoxy)phenyl]-1-[2-[4-(2-methylsulfonylethyl)piperazin-1-yl]-2-oxo-ethyl]pyrazol-4-yl]pyrazolo[1,5-a]pyrimidine-3-carboxamide] | 0.74 nM | 1.46 nM
10 | CC1(O)CCN(C(=O)Cn2cc(NC(=O)c3cnn4cccnc34)c(-c3cc(Cl)ccc3OC(F)F)n2)C1 (centres unmarked) [Example 269, N-[3-[5-chloro-2-(difluoromethoxy)phenyl]-1-[2-(3-hydroxy-3-methyl-pyrrolidin-1-yl)-2-oxo-ethyl]pyrazol-4-yl]pyrazolo[1,5-a]pyrimidine-3-carboxamide] | 0.33 nM | 0.83 nM
11 | O=C(Nc1cn(CC(=O)N2CCC(O)(c3ccncc3)CC2)nc1-c1cc(Cl)ccc1OC(F)F)c1cnn2cccnc12 [Example 276, N-[3-[5-chloro-2-(difluoromethoxy)phenyl]-1-[2-[4-hydroxy-4-(4-pyridyl)-1-piperidyl]-2-oxo-ethyl]pyrazol-4-yl]pyrazolo[1,5-a]pyrimidine-3-carboxamide] | 0.23 nM | 0.18 nM
12 | Nc1nn2cccnc2c1C(=O)Nc1cn(CC(=O)N2CCC(F)(F)C2)nc1-c1cc(Cl)ccc1OC(F)F [Example 282, 2-amino-N-[3-[5-chloro-2-(difluoromethoxy)phenyl]-1-[2-(3,3-difluoropyrrolidin-1-yl)-2-oxo-ethyl]pyrazol-4-yl]pyrazolo[1,5-a]pyrimidine-3-carboxamide] | 0.17 nM | 0.12 nM
13 | CN1CCN(C(=O)Cn2cc(NC(=O)c3c(N)nn4cccnc34)c(-c3cc(Cl)ccc3OC(F)F)n2)CC1 [Example 243, 2-amino-N-[3-[5-chloro-2-(difluoromethoxy)phenyl]-1-[2-(4-methylpiperazin-1-yl)-2-oxo-ethyl]pyrazol-4-yl]pyrazolo[1,5-a]pyrimidine-3-carboxamide] | 0.49 nM | 0.36 nM
14 | N#CC1(c2ccccc2)CCN(C(=O)Cn2cc(NC(=O)c3c(N)nn4cccnc34)c(-c3cc(Cl)ccc3OC(F)F)n2)CC1 [Example 283, 2-amino-N-[3-[5-chloro-2-(difluoromethoxy)phenyl]-1-[2-(4-cyano-4-phenyl-1-piperidyl)-2-oxo-ethyl]pyrazol-4-yl]pyrazolo[1,5-a]pyrimidine-3-carboxamide] | 0.55 nM | 0.29 nM
15 | CS(=O)(=O)N1CCC(CN2C[C@@H]3CN(C(=O)Cn4cc(NC(=O)c5cnn6cccnc56)c(-c5cc(Cl)ccc5OC(F)F)n4)C[C@@H]3C2)CC1 [Example 34, N-[1-[2-[(3aR,6aS)-2-[(1-methylsulfonyl-4-piperidyl)methyl]-1,3,3a,4,6,6a-hexahydropyrrolo[3,4-c]pyrrol-5-yl]-2-oxo-ethyl]-3-[5-chloro-2-(difluoromethoxy)phenyl]pyrazol-4-yl]pyrazolo[1,5-a]pyrimidine-3-carboxamide] | 0.47 nM | 0.46 nM
16 | Nc1nn2cccnc2c1C(=O)Nc1cn([C@@H]2CCNC2)nc1-c1cc(Cl)ccc1OC(F)F [Example 185, 2-amino-N-[3-[5-chloro-2-(difluoromethoxy)phenyl]-1-[(3R)-pyrrolidin-3-yl]pyrazol-4-yl]pyrazolo[1,5-a]pyrimidine-3-carboxamide] | 0.59 nM | 0.31 nM
17 | Nc1nn2cccnc2c1C(=O)Nc1cn(CC(=O)N2CCN(CCO)CC2)nc1-c1cc(Cl)ccc1OC(F)F [Example 244, 2-amino-N-[3-[5-chloro-2-(difluoromethoxy)phenyl]-1-[2-[4-(2-hydroxyethyl)piperazin-1-yl]-2-oxo-ethyl]pyrazol-4-yl]pyrazolo[1,5-a]pyrimidine-3-carboxamide] | 0.49 nM | 0.24 nM
18 | CN(CCc1ccccc1)Cc1nc(-c2cc(Cl)ccc2OC(F)F)c(NC(=O)c2cnn3cccnc23)s1 [Example 261, N-[4-[5-chloro-2-(difluoromethoxy)phenyl]-2-[[methyl(2-phenylethyl)amino]methyl]thiazol-5-yl]pyrazolo[1,5-a]pyrimidine-3-carboxamide] | 17.9 nM | 10.2 nM
19 | Nc1nn2cccnc2c1C(=O)Nc1cn(CC(=O)N2CCN(CC3CC3)CC2)nc1-c1cc(Cl)ccc1OC(F)F [Example 248, 2-amino-N-[3-[5-chloro-2-(difluoromethoxy)phenyl]-1-[2-[4-(cyclopropyl-methyl)piperazin-1-yl]-2-oxo-ethyl]pyrazol-4-yl]pyrazolo[1,5-a]pyrimidine-3-carboxamide] | 0.62 nM | 0.39 nM
20 | Nc1nn2cccnc2c1C(=O)Nc1cn(CC(=O)N2CCOCC2)nc1-c1cc(Cl)ccc1OC(F)F [Example 290, 2-amino-N-[3-[5-chloro-2-(difluoromethoxy)phenyl]-1-(2-morpholino-2-oxo-ethyl)pyrazol-4-yl]pyrazolo[1,5-a]pyrimidine-3-carboxamide] | 0.24 nM | 0.11 nM
21 | Nc1nn2cccnc2c1C(=O)Nc1cn(CC(=O)N2CCC(O)(c3ccccc3)CC2)nc1-c1cc(Cl)ccc1OC(F)F [Example 286, 2-amino-N-[3-[5-chloro-2-(difluoromethoxy)phenyl]-1-[2-(4-hydroxy-4-phenyl-1-piperidyl)-2-oxo-ethyl]pyrazol-4-yl]pyrazolo[1,5-a]pyrimidine-3-carboxamide] | 0.54 nM | 0.26 nM
22 | CN1CCN(C(=O)Cn2cc(NC(=O)c3cnn4cccnc34)c(-c3cc(Cl)ccc3OC(F)F)n2)C[C@@H]1CO [Example 234, N-[3-[5-chloro-2-(difluoromethoxy)phenyl]-1-[2-[(3R)-3-(hydroxymethyl)-4-methyl-piperazin-1-yl]-2-oxo-ethyl]pyrazol-4-yl]pyrazolo[1,5-a]pyrimidine-3-carboxamide] | 0.58 nM | 1.22 nM
23 | O=C(Nc1cn(CC(=O)N2CCN(CCCO)CC2)nc1-c1cc(Cl)ccc1OC(F)F)c1cnn2cccnc12 [Example 230, N-[3-[5-chloro-2-(difluoromethoxy)phenyl]-1-[2-[4-(3-hydroxypropyl)piperazin-1-yl]-2-oxo-ethyl]pyrazol-4-yl]pyrazolo[1,5-a]pyrimidine-3-carboxamide] | 0.61 nM | 0.71 nM
24 | O=C(Nc1cn(CC(=O)N2CCN(c3ccccc3)CC2)nc1-c1cc(Cl)ccc1OC(F)F)c1cnn2cccnc12 [Example 236, N-[3-[5-chloro-2-(difluoromethoxy)phenyl]-1-[2-oxo-2-(4-phenylpiperazin-1-yl)ethyl]pyrazol-4-yl]pyrazolo[1,5-a]pyrimidine-3-carboxamide] | 0.41 nM | 0.74 nM
25 | Nc1nn2cccnc2c1C(=O)Nc1cn(CC(=O)N2CCC(O)(Cc3ccccc3)CC2)nc1-c1cc(Cl)ccc1OC(F)F [Example 279, 2-amino-N-[1-[2-(4-benzyl-4-hydroxy-1-piperidyl)-2-oxo-ethyl]-3-[5-chloro-2-(difluoromethoxy)phenyl]pyrazol-4-yl]pyrazolo[1,5-a]pyrimidine-3-carboxamide] | 0.39 nM | 0.22 nM
